In article PMC8326471, “Synthesis and biological evaluation of new pyrazolebenzene-sulphonamides as potential anticancer agents and hCA I and II inhibitors” (Turkish Journal of Chemistry, 2021):

Experiments:
[1] = Cytotoxicity assay (MTT), HPC normal cells; assay type: cell-based; settings: human, HPC normal oral cells, non-tumor cells
Experimental: (§1) The cytotoxicity of the compounds 4a - 4j were assayed towards human tumor cell lines [gingival carcinoma (Ca9–22), oral squamous cell carcinoma (HSC-2)] and human normal oral cells [gingival fibroblasts (HGF), and periodontal ligament fibroblasts (HPLF)] as described [42, 54 – 56]. In brief, all cells were cultured in Dulbecco’s modified eagle’s medium (DMEM) supplemented with 10% fetal bovine serum (FBS). The following concentrations of the compounds in dimethylsulfoxide (DMSO) were added to the medium and incubated at 37 ° C for 48 h: 4a - 4j ([…]), melphalan (3.12, 6.25, 12.5, 25. 50, 100, 200 and […]) and 5-FU ([…]). The media that contained the same concentration of DMSO ([…], 0.03125, 0.0625, 0.125, 0.25, 0.5 or 1%) were used as controls since DMSO above 0.25% is cytotoxic. The viable cell numbers were determined by the 3-(4,5-dimethylthiazol-2-yl)-2,5-diphenyltetrazolium bromide (MTT) assay. The CC50 values were determined from dose-response curves.
(§2) Cytotoxicity’s of the compounds 4a - 4j were evaluated towards Ca9–22, HSC-2, HSC-3, and HSC-4 human oral squamous cell carcinoma cell lines as tumor cell lines and HGF, HPLF, and HPC human normal oral cells as nontumor cells (Table 1) according to the procedure in the literature [42, 54 – 56]. 5-Fluorouracil (5-FU) was used as a reference anticancer drug.

[2] = target: hCA II (Homo sapiens, UniProt P00918); experiment: Carbonic anhydrase enzyme assay (esterase activity), hCA II; assay type: biochemical
Source text: (§3) Human CA isoforms (hCAI and hCAII) were purified by the sepharose - 4B – L - tyrosine sulfanilamide affinity segregation method as reported. […] Inhibitory effects of the compounds were investigated by measuring the esterase activity according to Verpoorte et al. as described in previous studies [61 – 63].
(§4) Vmax, maximal velocity; VImax, maximal velocity of inhibitor; I, inhibitor; Ki, the inhibitor constant.

[3] = Cytotoxicity assay, all non-tumor cells (mean); assay type: cell-based; settings: human, normal oral cells HGF, HPLF and HPC (mean of the three), read-out: Non-tumor cell lines CC50 mean (D)
Experimental: as §1, §2

[4] = system: oral squamous cell carcinoma (HSC-2) cells; experiment: Cytotoxicity assay (MTT), HSC-2; assay type: cell-based, human
Experimental: as §1, §2

[5] = system: gingival carcinoma (Ca9-22) cells; experiment: Cytotoxicity assay (MTT), Ca9-22; assay type: cell-based, human
Experimental: as §1, §2

[6] = system: HSC-3 oral squamous cell carcinoma cells; experiment: Cytotoxicity assay (MTT), HSC-3; assay type: cell-based; settings: Homo sapiens, tumor cell line, 48 h
Experimental: as §1, §2

[7] = target: hCA I (Homo sapiens, UniProt P00915); experiment: Carbonic anhydrase enzyme assay (esterase activity), hCA I; assay type: biochemical
hCA I, sequence (P00915 whole entry): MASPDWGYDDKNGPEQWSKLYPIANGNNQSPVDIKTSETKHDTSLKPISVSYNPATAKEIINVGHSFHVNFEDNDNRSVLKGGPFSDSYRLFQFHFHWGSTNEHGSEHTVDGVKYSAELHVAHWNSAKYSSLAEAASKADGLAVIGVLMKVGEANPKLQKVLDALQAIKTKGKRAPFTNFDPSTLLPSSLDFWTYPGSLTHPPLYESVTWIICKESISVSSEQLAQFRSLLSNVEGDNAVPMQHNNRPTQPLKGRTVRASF
Source text: as §3, §4

[8] = system: human oral squamous cell carcinoma cell lines (Ca9-22, HSC-2, HSC-3, HSC-4); experiment: Cytotoxicity assay, all tumor cell lines (mean, TS1, PSE1); assay type: cell-based; settings: mean of Ca9-22, HSC-2, HSC-3, HSC-4, read-out: Tumor cell lines CC50 mean (B)
Experimental: as §1, §2
The tumor selectivity (TS1 and TS2) of each compound was calculated as described in previously reported literature procedures and these figures are presented in Table 1. Based on the TS1 values, 4f and 4g which have 2,5 and 2,4-dimethoxy substituents had the highest TS1 values in a series with 22.4 and 22.2, respectively. On the other hand, the 3,4,5-trimethoxy substituted compound 4i (TS1: 19.6) had the […] TS1 value. […] As expected, they were in accordance with the literature findings [16 – 18]. The second calculation (TS2) considered the differences of sensitivity between the malignant (Ca9–22) and non-malignant (HGF) cells derived from the same tissue (gingiva). According to TS2 values obtained, 4i (3,4,5-trimethoxy) had the highest TS2 value of 43.
The desired properties for a lead compound are being both markedly cytotoxic and selectively toxic for tumors. PSE1 reflects general cytotoxicity and selectivity potency of the compound towards all cells used, whereas PSE2 seems more specified since it was considered for the same origin cells. When the compounds tested towards OSCC lines were considered in terms of PSE2 values of the compounds. The best poly-methoxylated compounds were 4i (with 3,4,5-trimethoxy, PSE2 = 461.5) ˃ 4f (with 2,5-dimethoxy, PSE2 = 425.1) ˃ 4g (with 2,4-dimethoxy, PSE2 = 405.4) while the best mono-methoxylated derivative was 4b (with 4-methoxy, PSE2 = 205).

[9] = Cytotoxicity assay (MTT), HGF normal cells; assay type: cell-based; settings: human, HGF gingival fibroblasts (normal oral cells), non-tumor cells
Experimental: as §1, §2

[10] = Cytotoxicity assay (MTT), HPLF normal cells; assay type: cell-based; settings: human, HPLF periodontal ligament fibroblasts (normal oral cells), non-tumor cells
Experimental: as §1, §2

[11] = system: HSC-4 oral squamous cell carcinoma cells; experiment: Cytotoxicity assay (MTT), HSC-4; assay type: cell-based; settings: Homo sapiens, tumor cell line, 48 h
Experimental: as §1, §2

[12] = esterase activity, p-nitrophenyl acetate

## COc1cc(C2=NN(c3ccc(S(N)(=O)=O)cc3)C(c3ccc4c(c3)OCO4)C2)ccc1O (stereo not shown) [4j, 4-[5-(1,3-Benzodioxol-5-yl)-3-(4-hydroxy-3-methoxyphenyl)-4,5-dihydro-1H-pyrazol-1-yl]benzenesulphonamide]
[1]
  CC50 at 48 h: 54.3 µM
[2]; Lineweaver-Burk plot
  Ki: 9.3 ± 1.9 µM
[2]; [12]
  IC50: 20 µM
[3]
  CC50 at 48 h: 65.2 µM
[4]; Homo sapiens, HSC-2, tumor cell line, 48 h, MTT
  CC50: 26.7 µM
[4]; cytotoxicity relative to 5-FU
  times of potency compared to 5-FU, HSC-2: 9.8
[5]; Homo sapiens, Ca9-22, tumor cell line, 48 h, MTT
  CC50: 17 µM
[5]; cytotoxicity relative to 5-FU
  times of potency compared to 5-FU, Ca9-22: 1.3
other
  melting point: 161 to 163 °C
[6]
  CC50: 26.3 µM
[7]; Lineweaver-Burk plot
  Ki: 29.8 ± 9.4 µM
[7]; [12]
  IC50: 17.9 µM
[8]
  CC50: 21.7 µM
[9]
  CC50 at 48 h: 76.7 µM
[10]
  CC50 at 48 h: 64.7 µM
[11]
  CC50: 16.8 µM
